Assay results reported in publication PMC7948460, “Volatile allosteric antagonists of mosquito odorant receptors inhibit human-host attraction” (The Journal of Biological Chemistry, 2020).
“And” between values parts separate entries of the source, which are not always exact repeats. Identical values can stand only once. Like-named read-outs stand apart in the source and are kept apart here.

Experiments:
Ae. albopictus = assay: Repellence bioassay, human hand landing counts; assay type: in vivo, Aedes albopictus
AgamORco = biological target: T1, AgamORco (Anopheles gambiae, UniProt Q7QCC7); assay: cell-based
T1 sequence (Q7QCC7 1-478): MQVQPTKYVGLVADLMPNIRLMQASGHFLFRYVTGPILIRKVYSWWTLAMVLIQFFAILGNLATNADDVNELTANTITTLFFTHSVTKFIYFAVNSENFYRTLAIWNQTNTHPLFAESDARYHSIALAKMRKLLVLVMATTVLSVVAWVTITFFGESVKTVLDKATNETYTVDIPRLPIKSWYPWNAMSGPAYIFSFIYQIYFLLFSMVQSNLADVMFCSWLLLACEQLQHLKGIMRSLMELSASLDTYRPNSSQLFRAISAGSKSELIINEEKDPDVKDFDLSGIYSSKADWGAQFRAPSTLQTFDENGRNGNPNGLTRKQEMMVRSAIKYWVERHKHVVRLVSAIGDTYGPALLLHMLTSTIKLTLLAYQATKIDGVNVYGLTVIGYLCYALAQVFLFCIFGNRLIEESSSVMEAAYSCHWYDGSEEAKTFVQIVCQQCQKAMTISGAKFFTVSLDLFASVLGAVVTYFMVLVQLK

AaegORco = biological target: T2, AaegORco (Aedes aegypti, UniProt Q178U6); assay: Two-microelectrode voltage-clamp recordings of Xenopus laevis oocytes expressing AaegORco, VUAA1-induced currents; assay type: cell-based; settings: 200 μM VUAA1 with equimolar compound; for Normalized response (%) of AaegORco to VUAA1 in combination with compound: printed in picture Fig. 4B
T2 construct: expressed in transfected cells; host or cells: Xenopus laevis oocytes microinjected with cRNA transcribed from the pSP64tRFA vector
T2 sequence (Q178U6 1-478): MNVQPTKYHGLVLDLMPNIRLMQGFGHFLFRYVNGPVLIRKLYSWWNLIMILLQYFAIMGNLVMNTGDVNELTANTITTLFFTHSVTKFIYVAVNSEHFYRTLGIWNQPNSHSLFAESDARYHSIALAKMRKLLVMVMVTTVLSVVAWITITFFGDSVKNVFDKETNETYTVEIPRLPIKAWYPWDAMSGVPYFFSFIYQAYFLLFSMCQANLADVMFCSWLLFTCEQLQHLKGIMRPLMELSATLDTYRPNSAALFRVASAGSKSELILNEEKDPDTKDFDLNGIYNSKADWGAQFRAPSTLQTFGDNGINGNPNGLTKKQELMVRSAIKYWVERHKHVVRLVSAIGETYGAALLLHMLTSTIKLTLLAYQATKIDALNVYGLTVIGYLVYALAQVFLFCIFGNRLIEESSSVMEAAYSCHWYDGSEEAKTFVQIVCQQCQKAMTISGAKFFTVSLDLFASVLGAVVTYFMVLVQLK
Protocol: Across all treatments, we observed a consistent increase in the third VUAA1-induced response relative to the first and second VUAA1 administrations (Fig. 4A). For this reason, the inhibition level (Fig. 4B) was calculated by normalizing the response amplitude elicited by the second stimulation, to the average current responses elicited by the first and last VUAA1 stimulations.
In vitro transcription and two-microelectrode voltage-clamp electrophysiological recordings were performed as described ([62]). Briefly, ORco of Ae. aegypti (AaegORco; GenBank: BK006142.1) was synthesized using the mMESSAGE mMACHINE SP6 kit (ThermoFisher Scientific) from the linearized pSP64tRFA expression vector. The harvested X. laevis oocytes were manually separated from the ovaries prior to collagenase treatment (8 mg/ml, 30 min, 18 °C) in order to remove the follicular layer. Stage V–VI oocytes were rinsed in washing solution (96 mM NaCl, 2 mM KCl, 5 mM MgCl2, and 5 mM Hepes, pH 7.6) and microinjected with a mixture of 1 μl AaegOrco (3 μg/μl) and 2 μl of double-distilled water. Injected oocytes were incubated at 18 °C for 3 days in Ringer’s solution (96 mM NaCl, 2 mM KCl, 5 mM MgCl2, 0.8 mM CaCl2, and 5 mM Hepes, pH 7.6) supplemented with 5% dialyzed horse serum, 50 μg/ml tetracycline, 100 μg/ml streptomycin, and 550 μg/ml sodium pyruvate. Whole-cell currents were recorded using the two-microelectrode voltage-clamp technique. During recording sessions, the holding potential was maintained at −80 mV using an OC-725C oocyte clamp (Warner Instruments, LLC). Oocytes were placed in a RC-3Z oocyte recording chamber (Warner Instruments) and exposed for 8 s to 200 μM VUAA1 (Innovapharm Ltd), 2,4-octadienal predominantly trans (Sigma-Aldrich), or carvacrol (Sigma-Aldrich). All compounds were solubilized in 200 μl of DMSO prior to the dilutions in the Ringer’s solution. Currents were allowed to return to baseline between odorant applications. Data acquisition and concentration–response analyses were carried out with a Digidata 1550A and the pCLAMP10 software (Molecular Devices). Statistical significance was evaluated with one-way ANOVA followed by Tukey's post test.

Bm5 cells = assay: Toxicity to the AgamORco/Photina-expressing Bm5 cells during dose-response evaluation; assay type: cell-based; settings: Bombyx mori, Bm5 cells stably expressing AgamORco and Photina
[1] = 0.2 μL equivalent per cm^2, 5 min
[2] = 50 μM ORcoRAM2 (OA), read-out: IC50 in binding competition assay
[3] = 50 μM ORcoRAM2 (OA), read-out: pIC50 in binding competition assay (converted)
[4] = 100 μM ORcoRAM2 (OA), read-out: IC50, inhibition of OA-dependent AgamORco channel activity
[5] = 100 μM ORcoRAM2 (OA), read-out: pIC50, inhibition of OA-dependent AgamORco channel activity (converted)
[6] = 150 μM ORcoRAM2 (OA), read-out: IC50 in binding competition assay
[7] = 150 μM ORcoRAM2 (OA), read-out: pIC50 in binding competition assay (converted)
[8] = 0.01 μL equivalent per cm^2, 5 min
[9] = 0.04 μL equivalent per cm^2, 5 min

Row | Compound | Mean % repellency (Ae. albopictus; [1]) [%] | Average landings (+ st. dev) (Ae. albopictus; 0.2 μL per cm2, 5 min) | IC50 (AgamORco; [2]) [µM] | IC50 (AgamORco; [3]) [µM] | IC50 (AgamORco; [4]) [µM] | IC50 (AgamORco; [5]) [µM] | IC50 (AgamORco; [6]) [µM] | IC50 (AgamORco; [7]) [µM] | Reduction of VUAA1-activated currents (AaegORco) | Normalized response (%) of AaegORco to VUAA1 in combination with compound (AaegORco) [%] | Mean % repellency (Ae. albopictus; [8]) | Average landings (+ st. dev) (Ae. albopictus; 0.01 μL per cm2, 5 min) | Mean % repellency (Ae. albopictus; [9]) [%] | Average landings (+ st. dev) (Ae. albopictus; 0.04 μL per cm2, 5 min) | EC50 (AgamORco; absence of antagonist, read-out: EC50 of ORco agonist on AgamORco) | Concentrations toxic to the cells (Bm5 cells)
1 | CC(C)OC(=O)C=Cc1ccccc1 [IPC, Isopropyl cinnamate, reference compound] | 96 ± 1.6 | 2.1±0.8 | – | – | – | – | – | – | – | – | – | – | – | – | – | –
2 | CCC/C=C/C=C/C=O [OCT, (2E,4E)-2,4-Octadienal] | 100 ± 0 | 0±0 | 41.8 | 41.8 | 59.8 | 59.8 | 117 | 117 | approximately 60% | -59.5 | 13.8% and 13.8 ± 12.8% | 47.1±7.0 | 97.9 ± 2.7 | 1.1±1.5 | – | –
3 | CC1=CCC2[C@H](C1)C2(C)C (stereo partly drawn) [CAR, (1S)-3-Carene] | 89.8 ± 4.3 | 5.4±2.3 | – | – | – | – | – | – | – | – | – | – | – | – | – | –
4 | CCN(CC)C(=O)c1cccc(C)c1 [DEET, N,N-Diethyl-3-methylbenzamide, reference compound] | 100 ± 0 | 0±0 | – | – | – | – | – | – | – | – | 96.7% and 96.7 ± 2.6% | 1.8±1.4 | 100 ± 0 | 0±0 | – | –
5 | C=CC(C)(CCC=C(C)C)OC(C)=O (stereo not drawn) [LA, Linalyl acetate] | 72.3 ± 15.6 | 14.6±8.1 | – | – | – | – | – | – | – | – | – | – | – | – | – | –
6 | CCc1ccc(NC(=O)CSc2nnc(-c3ccccn3)n2CC)cc1 [ORcoRAM2, reference compound] | – | – | – | – | – | – | – | – | – | – | – | – | – | – | 91.3 µM and 91.9 µM and 91 µM | –
7 | Cc1ccc(C(C)C)cc1O [CRV, Carvacrol] | 99.8 ± 0.7 | 0.1±0.4 | 26.3 | 26.3 | 23.4 | 23.3 | 28.4 | 28.4 | ~85% | -84.8 | 67.8% and 67.8 ± 9% | 17.6±4.9 | 99.1 ± 2 | 0.5±1.1 | – | above 250 μM
8 | CC(C)c1ccc(CO)cc1 [CA, Cumin alcohol] | 99.8 ± 0.7 | 0.1±0.4 | – | – | – | – | – | – | – | – | 63.2% and 63.2 ± 11.8% | 20.1±6.5 | 78 ± 7 | 11.8±3.7 | – | –
